Data reported in ChEMBL document CHEMBL1149602, “Impaired mutagenic activities of MPDP(+) (1-methyl-4-phenyl-2,3-dihydropyridinium) and MPP(+) (1-methyl-4-phenylpyridinium) due to their interactions with methylxanthines” (2007).

Assays:
Type in all cases: functional
Vibrio harveyi [1] = test: Effect on 1-methyl-4-phenylpyridinium-induced mutagenicity in Vibrio harveyi BB7XM assessed as number of neomycin-resistant mutants at 500 uM
Vibrio harveyi [2] = test: Effect on 1-methyl-4-phenylpyridinium-induced mutagenicity in Vibrio harveyi BB7XM assessed as number of neomycin-resistant mutants at 10 uM
Vibrio harveyi [3] = test: Effect on 1-methyl-4-phenyl-2,3-dihydropyridinium-induced mutagenicity in Vibrio harveyi BB7XM assessed as number of neomycin-resistant mutants at 500 uM
Vibrio harveyi [4] = test: Effect on 1-methyl-4-phenyl-2,3-dihydropyridinium-induced mutagenicity in Vibrio harveyi BB7XM assessed as number of neomycin-resistant mutants at 100 uM
Vibrio harveyi [5] = test: Effect on 1-methyl-4-phenylpyridinium-induced mutagenicity in Vibrio harveyi BB7XM assessed as number of neomycin-resistant mutants at 100 uM
Vibrio harveyi [6] = test: Effect on 1-methyl-4-phenyl-2,3-dihydropyridinium-induced mutagenicity in Vibrio harveyi BB7XM assessed as number of neomycin-resistant mutants at 10 uM
Vibrio harveyi [7] = test: Effect on 1-methyl-4-phenylpyridinium-induced mutagenicity in Vibrio harveyi BB7XM assessed as number of neomycin-resistant mutants at 1000 uM
Vibrio harveyi [8] = test: Effect on 1-methyl-4-phenyl-2,3-dihydropyridinium-induced mutagenicity in Vibrio harveyi BB7XM assessed as number of neomycin-resistant mutants at 1000 uM

| SMILES | Activity (Vibrio harveyi [1]) | Activity (Vibrio harveyi [2]) | Activity (Vibrio harveyi [3]) | Activity (Vibrio harveyi [4]) | Activity (Vibrio harveyi [5]) | Activity (Vibrio harveyi [6]) | Activity (Vibrio harveyi [7]) | Activity (Vibrio harveyi [8]) |
| --- | --- | --- | --- | --- | --- | --- | --- | --- |
| CC(=O)CCCCn1c(=O)c2c(ncn2C)n(C)c1=O [PENTOXIFYLLINE] | 52 | 116 | 77 | 143 | 78 | 278 | 24 | 51 |
| Cn1c(=O)c2c(ncn2C)n(C)c1=O [CAFFEINE] | 31 | 103 | 51 | 70 | 50 | 293 | 7 | 47 |
